Values quoted from earlier work in US4866035A, “Dipeptidyl saccharides as host resistance enhancers in AIDS-immuno-compromised hosts and methods of use” (Merck & Co., Inc., priority 1987, dated 1989).
Read-outs that look alike come from different tables or passages of the source.

Experiments:
AIDS or ARC patients = settings: ARC or AIDS-related conditions
[1] = in vivo
[2] = system: human immunodeficiency virus (HIV)
reverse transcriptase = settings: in vitro
[3] = target: HIV reverse transcriptase (Human immunodeficiency virus type 1 group M subtype B, UniProt P04585)
[4] = clinical trials or use in patients

Compound	clinical effect in patients (AIDS or ARC patients)	adverse effects, tolerability (patients; human, in vivo)	other results
Cc1cn([C@H]2C[C@H](N=[N+]=[N-])[C@@H](CO)O2)c(=O)[nH]c1=O [Azidothymidine, 3'-azido 3'-deoxythymidine]	promise in prolonging lives		half life in the body [1]: relatively short half life; penetration of central nervous system [1]: effectively penetrates central nervous system; oral absorption ([1]; po): Well absorbed orally
CC(C)(S)[C@@H](N)C(=O)O [D-Penicillamine, 3-mercapto D-valine]	suppressed the virus	temporarily depressed T cell levels	
NC(=O)c1ncn([C@@H]2O[C@H](CO)[C@@H](O)[C@H]2O)n1 [Ribavirin, 1-β-D-ribofuranosyl-1,2,4-triazole 3-carboxamide]	inhibited viral replication and improved immune function		adverse effects, tolerability (patients; [4]): well tolerated
ammonium-21-tungsto-9-antimoniate [HPA-23]	no therapeutic benefit has been documented		effect on HIV growth or infectivity [2]: some tendency to check the growth of HIV; inhibition of reverse transcriptase in several retroviruses (reverse transcriptase): Inhibits reverse transcriptase
CC(C)(N1CC1C#N)N1CC1C(N)=O (stereo not drawn) [Azimexon]	improvements in symptoms and immune function in patients with ARC but not AIDS		adverse effects, tolerability (patients; [4]): mild hemolysis
CC(=O)Nc1ccc(C(=O)O)cc1.CC(=O)Nc1ccc(C(=O)O)cc1.CC(=O)Nc1ccc(C(=O)O)cc1.CC(O)CN(C)C.CC(O)CN(C)C.CC(O)CN(C)C.O=c1[nH]cnc2c1ncn2[C@@H]1O[C@H](CO)[C@@H](O)[C@H]1O [Inosine pranobex]	improve immune function in ARC patients		
CO[C@H]1/C=C/O[C@@]2(C)Oc3c(C)c(O)c4c(c3C2=O)C2=NC3(CCN(CC(C)C)CC3)NC2=C(NC(=O)/C(C)=C\C=C\[C@H](C)[C@H](O)[C@@H](C)[C@@H](O)[C@@H](C)[C@H](OC(C)=O)[C@@H]1C)C4=O [Ansamycin]	some efficacy		
α-Interferon	induced tumor regression in some AIDS-related Kaposi's sarcoma cases		effect on HIV growth or infectivity [2]: Checks the growth of HIV in vitro
Cc1ccc(C(=O)Nc2ccc(S(=O)(=O)O)c3cc(S(=O)(=O)O)cc(S(=O)(=O)O)c23)cc1NC(=O)c1cccc(NC(=O)Nc2cccc(C(=O)Nc3cc(C(=O)Nc4ccc(S(=O)(=O)O)c5cc(S(=O)(=O)O)cc(S(=O)(=O)O)c45)ccc3C)c2)c1 [Suramin]		serious side effects	inhibition of HIV reverse transcriptase [3]: Potent inhibitor of HIV reverse transcriptase
O=C(O)P(=O)(O)O [Foscarnet, trioodium phosphonoformate]		serious side effects	inhibition of HIV reverse transcriptase [3]: Inhibits HIV reverse transcriptase activity in vitro
